System: BV-2
Experiment: Antiinflammatory activity in mouse BV2 cells assessed as inhibition of LPS-induced nitric oxide production pretreated for 1 hr followed by LPS addition and measured after 24 hrs by Griess assay
Format: functional, cell-based

IC50 [µM]	Structure (SMILES)
10.9	O=C(/C=C/c1ccc(O)c(O)c1)c1ccc(O)cc1O [BUTEIN]
13.5	O=c1c(O)c(-c2ccc(O)c(O)c2)oc2cc(O)ccc12 [FISETIN]
